# According to paper PMC8277129, “Bioconcentration of Several Series of Cationic Surfactants in Rainbow Trout” (Environmental Science & Technology, 2021):
# “And” between values parts separate entries of the source, which are not always exact repeats. Identical values can stand only once. Like-named read-outs stand apart in the source and are kept apart here.
# What was measured:
# [1] = Bioconcentration (BCF) experiment based on OECD 305, aqueous exposure to surfactant mixtures; type: in vivo, Oncorhynchus mykiss; conditions: whole fish, read-out: measured total elimination rate constant (kT) (converted)
# Protocol: (§1) Juvenile rainbow trout were purchased from EM lax in Västervik, Sweden, and held in the aquaria facility for one month prior to starting the experiment on August 28, 2018. Ethical approval for the experiments was obtained from Stockholm’s djurförsöksetiska nämnd (decision 9967–2017). The experiment was conducted in six 350 L fiberglass aquaria with a water renewal rate of 1.5 L min^–1 corresponding to a turnover time of […]. The water temperature and the air temperature in the aquaria room were 10 °C. The lighting was dim and programmed on a 12 h light/12 h dark cycle.
# (§2) Three BCF experiments were conducted, one each for MIX1 and MIX2 at pH ∼7.6 (denoted MIX1 and MIX2 in the following), and one for MIX1 at pH ∼6.2 (MIX1pH). Each experiment consisted of a 14 d exposure phase and a 28 d depuration phase. There were also two control aquaria where unexposed fish were kept, one at pH 7.6 and one at pH 6.2. For the pH 6.2 aquaria, a 20% v:v formic acid solution was pumped into a premixing basin where it was mixed with the inflowing water before entering the aquarium. pH sensors monitored pH in the premixing basin and the aquarium. The pH for the MIX1 and MIX2 experiments was governed by the pH of the water supply. Water samples were collected at 8 time points during each experiment for the determination of pH and alkalinity. Water samples were collected daily during the exposure phase for determination of total organic carbon (TOC), which was measured with NDIR detection after acidification, purging and high-temperature catalytic combustion (Shimadzu TOC-L).
# (§3) For the exposure phase, a methanol solution of the test chemical mixture was infused continuously at 4.0 μL min^–1 into the water inflow of the aquarium using a syringe pump. The target concentrations of the chemicals in water ranged from 2.5 to 100 μg L^–1 (Table 1). They were selected to be as low as possible to minimize the risk of toxic effects while still being high enough to enable collection of high-quality data, building on the results of the tissue distribution experiment.[32] The syringe pump was started in an aquarium containing no fish. After 16 h to allow the concentrations to stabilize, ∼80 rainbow trout were transferred to the aquarium. Over the following 14 d water samples were collected and fish were sacrificed according to the schedule in Table S5. The remaining fish were then transferred to a second aquarium that received water without chemical addition. Over the following 28 d further water samples were collected and fish were sacrificed (Table S5).
# (§4) At each fish sampling, 4–6 fish were sacrificed. Fish were also sampled periodically from the control aquaria. Following stunning and severance of the spinal cord, the fish were placed in a polyethylene bag, weighed, and immediately frozen at −20 °C. The median fish weight at sacrifice was 10.94 g, with a 25th and 75th percentile of 8.43 and 13.58 g, respectively.
# (§5) Three fish from each time point were prioritized for analysis based on proximity to the median fish weight. Each fish was semithawed, cut into 3–4 pieces, and homogenized with an Ultra-Turrax device. 150 mg of the homogenate was transferred to a preweighed 13 mL polypropylene tube, centrifuged to a pellet, and weighed. 50 μL of methanol was added and the prepared aliquot was frozen. For extraction internal standard solution (isotope labeled standards of Q10 (D21), Q14 (D29), and P16 (D33)), 3 mL of methanol and 3 steel balls (3.2 mm diameter) were added to the prepared aliquot. This mixture was mixed in a bullet blender for 1 min, and then placed in an ultrasound bath at 50 °C for 60 min. Following centrifugation, the supernatant was decanted and the extraction was repeated. The extracts were combined and a portion corresponding to 25–50 mg homogenate was cleaned up on a weak cationic exchange SPE column (WCX, 60 mg) as described elsewhere.[32] […]
# [2] = tested on: juvenile rainbow trout (Oncorhynchus mykiss); experiment: as above; type: in vivo; conditions: for uptake rate constant (kU): 14 d exposure, 28 d depuration; for uptake rate constant (kU) / BCF (kU/kT) / measured total elimination rate constant (kT): whole fish
# Protocol: as §1, §2, §3, §4, §5
# gills of rainbow trout = experiment: Mechanistic one-box mass balance model of gill uptake and elimination; conditions: for predicted gill elimination rate constant eq 1 (k2): from measured kU and modeled αW, αB, DFW
# Text: To gain more mechanistic insight into the results, we formulated a simple one-box mass balance model of chemical bioconcentration in fish that considered diffusive uptake and elimination across the gills as well as biotransformation.[33] The flow of water across the gills and the flow of blood through the gills were modeled as perfusion limited resistances that constrain gill uptake and elimination. […] Consequently, these resistances are unknowns. Ion trapping effects caused by differences in pH between water at the gill surface and blood in the gills are considered, drawing on previous work on the uptake and elimination of ionizable organic chemicals across the gills of rainbow trout.[22],[23] Partitioning of the chemical from the dissolved phase into blood and into whole fish was calculated as the product of the membrane lipid–water distribution ratio (DMLW,T, including partitioning of both the neutral and the charged forms) and the fraction of membrane lipid in blood and whole fish. A detailed description of the model is provided in the SI (Text S3).
# The contribution of the water perfusion and blood perfusion resistances were compared with the overall resistance for transport across the gills from water to blood (RW→B), which was calculated from the measured kU according to equation S4.3. […] For all of the other chemicals the blood resistance is insignificant compared to the overall resistance.
# The rate constant for elimination across the gills, k2, can be defined as follows: [drawing 1] 1 where αB and αW are the neutral fractions of the chemical in the blood and in the water at the gill surface, respectively, and DFW is the fish-water distribution ratio of the chemical at the pH of blood (8.1) (see Text S3). Using the measured kU and the values of αW, αB, and DFW estimated for the model, k2 was calculated (Table 2).
# [3] = Membrane-water partition coefficient of the charged form (DMLW,C); type: physicochemical; conditions: extrapolated from Timmer and Droge (2017)
# Protocol: Table S3: Test chemical properties
# Abbr. pKa$ Log DOC§ Log DMLW,C# SMILES
# $ pKa values derived/reported for different alkylamine type analogues. The selected value is expected to be independent of chain length for all longer chain homologues, using a weighted value obtained from the different sources with more focus on experimental data:
# Algorithm / simulated data Experimental reference data (25 °C)
# Chem ACD/ COSMO- selected
# (https://echa.europa.eu/registration-dossier/-
# [4] = set-up: method as in Perrin 1965, SRC, REACH, Perrin 1972, Hall 1957; conditions: selected per amine type, weighted from simulated and experimental analogue data; ref Perrin 1965, SRC, REACH, Perrin 1972, Hall 1957; cited from earlier work
# rainbow trout [5] = tested on: rainbow trout; set-up: method as in PMID 32062967; conditions: after the 7 d exposure; cited from earlier work
# rainbow trout [6] = experiment: Semiquantitative screening of demethylation metabolites in exposed fish; type: in vivo; conditions: last time point of the exposure phase
# Protocol: Semiquantitative screening of possible demethylation metabolites was conducted in the fish collected at the last time point of the exposure phase. […] Demethylation of T10 to form S10 was reported in an in vitro S9 assay, and it was proposed that this is an important elimination mechanism for tertiary amines in fish.[27] There is in vitro evidence that demethylation of secondary alkylamines also occurs, which will be reported elsewhere.[37]
# [7] = ref Timmer and Droge (2017); cited from earlier work
# [8] = Estimated neutral fraction in water at the fish gill surface; conditions: pH 7.6 experiments; estimated pKa of 10
# Text: The BCF was markedly lower for the QACs compared to tertiary amines with the same chain length: a factor >670 for Q10 compared to T10, and a factor 160 for Q14 compared to T14 (Figure 1, upper panel). The prominent structural difference between the QACs and the analogous tertiary amines is that the former are permanently charged, while the latter exist in both a charged (protonated) and a neutral form.
# Text S5: Estimation of pH at the gill surface
# The pH at the surface of the gills was calculated using the following system of 5 equations:
# alk = 2 × [CO2 ― ] + [HCO ― ] (3)
# DIC = [H CO ] + [HCO ― ] + [CO2 ― ] (4) where alk is alkalinity and DIC is total dissolved inorganic carbon. The dissociation constants K1 and K2 were estimated from water temperature according to equations 9.23 and 9.24 in http://www-naweb.iaea.org/napc/ih/documents/global_cycle/vol%20I/cht_i_09.pdf The measured pH and alkalinity in bulk water were used to solve for [H+], [HCO3-], [CO32-], [H2CO3] and DIC. For the water in the gill lamella, the carbon added to the water via respiration (0.0002 mol L-1 based on estimated oxygen demand and gill ventilation rate for a 10 g fish at 10 °C (Arnot et al. 2008, Armitage et al. 2013)) was added to DIC, and using this new DIC and the alkalinity the 5 equations were resolved for [H+], [HCO3-], [CO32-], [H2CO3] and pH. […]
Compound,factor by which BCF is lower at pH 6.2 than at pH 7.6 ([2]; MIX1 vs MIX1pH),factor by which kT is greater at pH 6.2 than at pH 7.6 ([2]; MIX1 vs MIX1pH),uptake rate constant (kU) ([2]; pH 6.2 (MIX1pH)) [L kg^–1 h^–1],BCF (kU/kT) ([2]; pH 6.2 (MIX1pH)) [L kg^–1],"uptake rate constant (kU) ([2]; pH 7.6 (MIX1, MIX2), 10 °C) [L kg^–1 h^–1]","BCF (kU/kT) ([2]; pH 7.6 (MIX1, MIX2)) [L kg^–1]",k2/kT (gills of rainbow trout; pH 6.2 (MIX1pH)),predicted gill elimination rate constant eq 1 (k2) (gills of rainbow trout; pH 6.2 (MIX1pH)) [h^–1],modeled water resistance as share of the measured uptake resistance (gills of rainbow trout; pH 7.6),"k2/kT (gills of rainbow trout; pH 7.6 (MIX1, MIX2))","predicted gill elimination rate constant eq 1 (k2) (gills of rainbow trout; pH 7.6 (MIX1, MIX2)) [h^–1]","Log DMLW,C (membrane-water partition coefficient of the charged form) [3]",pKa used (selected value) [4],fraction in gills and skin/mucus (rainbow trout [5]) [%],"measured total elimination rate constant (kT) ([2]; pH 7.6 (MIX1, MIX2)) [h^–1]",demethylation metabolites observed in fish (rainbow trout [6]),"Log DMLW,C (membrane-water partition coefficient of the charged form) [7]",other results
"CCCCCCCCCCCCCCCCN [P16, Hexadecylamine]",2,no pH dependency for kT,7.8,3000,15.3,6100,0.09,0.00023,exceeds 50%,0.01,0.00003,7.90,C16NH2 (10.6),73,–,–,–,"k el ([1]; pH 6.2 (MIX1pH)): 7.22e-07 s⁻¹; k el ([1]; pH 7.6 (MIX1, MIX2)): 6.94e-07 s⁻¹; factor by which kU is lower at pH 6.2 than at pH 7.6 ([2]; MIX1 vs MIX1pH): 2; pH dependency of k2 (factor between pH 7.6 and pH 6.2) (gills of rainbow trout; MIX1 vs MIX1pH): 7"
"CCCCCCCCCCCCNC [S12, N-methyldodecylamine]",–,–,–,–,5.5,840,–,–,–,0.6,0.004,–,C12N(CH3)H (10.8),–,0.0066,"P12, a metabolite of S12, was also observed",5.39,–
"CCCCCCCCCCCCCCCCNC [S16, N-methylhexadecylamine]",–,–,–,–,22,8200,–,–,–,0.03,0.00007,7.71,C16N(CH3)H (10.8),71,0.0027,P16 was not detected,–,–
"CCCCCCCCCN(C)C [T9, N,N-dimethylnonylamine]",–,–,–,–,2.0,35,–,–,–,4.6,0.27,–,C13N(CH3)2 (10.0),–,0.059,trace levels of the corresponding primary amines,3.07,factor by which k2 exceeded kT (gills of rainbow trout; pH 7.6): ~5
"CCCCCCCCCCCCCN(C)C [T13, N,N-dimethyltridecylamine]",9.5,3 and 2.8,4.7,340,15.9,3200,2.8,0.039,exceeds 50%,1.9,0.010,5.88,C13N(CH3)2 (10.0),–,0.0049,trace levels of the corresponding primary amines,–,measured total elimination rate constant (kT) ([2]; pH 6.2 (MIX1pH)): 0.0139 h^–1; BCF compared with REACH B (2000) and vB (5000) thresholds ([2]; pH 7.6): greater than 2000 L kg ww^–1
"CCCCCCCCCCCCCCN(C)C [T14, N,N-dimethyltetradecylamine]",–,–,–,–,27,8100,–,–,–,1.2,0.004,6.46,C14N(CH3)2 (10.0),–,0.0034,–,–,factor by which kU is higher than for Q14 ([2]; pH 7.6): 260; neutral fraction in the water at the fish gill surface [8]: approximately 0.002
